In BindingDB's records for doi:10.1021/jm800355c (Saarland University, 2008):

Molecular target: T1, Cytochrome P450 11B1, mitochondrial (Homo sapiens, UniProt P15538)
T1 sequence (P15538 whole entry): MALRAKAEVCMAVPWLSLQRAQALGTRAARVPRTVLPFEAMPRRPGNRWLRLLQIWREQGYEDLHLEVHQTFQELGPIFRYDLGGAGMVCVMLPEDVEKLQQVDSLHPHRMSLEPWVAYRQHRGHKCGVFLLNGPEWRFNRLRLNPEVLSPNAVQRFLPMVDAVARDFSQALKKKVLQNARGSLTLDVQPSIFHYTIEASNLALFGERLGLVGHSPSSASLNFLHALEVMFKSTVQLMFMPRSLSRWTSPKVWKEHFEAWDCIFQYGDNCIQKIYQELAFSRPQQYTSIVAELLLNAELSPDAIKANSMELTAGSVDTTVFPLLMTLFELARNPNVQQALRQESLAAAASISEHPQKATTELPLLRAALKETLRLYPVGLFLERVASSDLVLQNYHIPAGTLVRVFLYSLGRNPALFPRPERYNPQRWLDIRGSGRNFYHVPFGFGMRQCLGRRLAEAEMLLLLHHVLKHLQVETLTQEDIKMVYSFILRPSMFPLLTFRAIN
Assay: CYP11B1 Inhibition Assay
Method: The enzyme activity was assayed by monitoring the conversion of deoxycorticosterone to corticosterone in the presence of inhibitor compounds. The product formation was monitored by HPTLC using a phosphoimager system.

- IC50: 1610 nM
SMILES: C[C@]12CC[C@H](O)CC1=CC[C@@H]1[C@@H]2CC[C@]2(C)C(c3cccnc3)=CC[C@@H]12 [ABT]
